Legend:
Assay type in all cases: cell-based, Human
5637 cells = assay: Synergy between CVA21 and radiotherapy, 5637 cells; settings: 5637 cells irradiated (4-10 Gy)
Procedure: Combining CVA21 with the radiotherapy has shown exceptional synergy. When 5637 cells were irradiated (4-10 Gy) then 24 hours later exposed to CVA21 (multiplicities of infection 0.961-12.6), clear synergy was seen (FIG. 3a). […] A comprehensive experimental and analytic method was implemented for this work which allows calculation of combination index values at all data points, and therefore identification of areas of high synergy across the whole response surface (Greco et al. 1995) (FIGS. 3b, 3c).
In brief, T24/5637 cells were plated at 0.25×10^4/0.5×10^4 cells per well (100 μL) of a 96 well tray and incubated at 37° C. for 24 hrs. Day 2—An extra 100 ul 10% FCS, media was added to the cells. Then they were treated with Rad (Gy 0, 4, 6, 8, 10) on a clinical Varian linear accelerator in St Luke's Cancer Centre, Royal Surrey Hospital UK. Day 2—The plates were returned to the lab and incubated at 37° C. for 24 hrs. Day 3—The medium was removed and 100 ul of CVA21 (MOI 12.5-0.1 in 2% FCS medium) was added and incubated at 37° C. for 72 hrs. Day 6—The medium was removed and 100 μl of fresh 10% FCS medium added and incubated for 24 hrs. Day 7—The medium was removed and 100 μl of diluted MTS reagent (Promega) was added. The plates were then incubated for 1-2 hr and read absorbance at 492 nm. […]

[1] = tested on: bladder cancer cell lines; assay: Combination of CVA21 and chemotherapy on cell proliferation, combination index (CalcuSyn); settings: for combination index values: fixed ratio design
Procedure: FIG. 2 c): The effect of the combination of CVA21 and chemotherapy on cell proliferation was assessed by calculating combination index (CI) values using CalcuSyn software (Biosoft).
Combining CVA21 with the chemotherapy agents Mitomycin C and Gemcitabine has shown surprising synergy. […] Preliminary data using the same method has found from the 50% to the 75% effect levels, combination index values of 0.69-0.83 with Gemcitabine (FIG. 2b). In brief, 5637/T24/TCCSUP-1 cells were plated at 1×10^4 cells per well (100 μL) of a 96 well tray and incubated at 37° C. for 24 hrs. Mitomycin C was diluted in 10% FCS medium in doubling dilutions from between 2.8 to 0.02 ug/ml for 5637 cells and between 3.36 to 0.03 ug/ml for T24 cells. CVA21 was then diluted between MOI 25-0.196 in doubling dilutions using each dilution of Mitomycin C. The cells were then treated with each dilution of CVA21/Mitomycin C and incubated for 72 hrs. The medium was removed and 100 μl of diluted MTS reagent (Promega) was added. The plates were then incubated for 1-4 hrs and absorbance read at 492 nm.

KU19-19 cells = assay: CVA21 cytotoxicity, KU19-19 cells; settings: FIG. 2b
bladder cell line T24 = assay: Synergy between MMC and CVA21, dose matrix, T24 cells; settings: CVA21 (0-50 TCID50/cell) with MMC (0-3.36 ug/ml), at low mitomycin concentrations, especially below 0.2 ug/ml
Procedure: In brief, 5637/T24/TCCSUP-1 cells were plated at 1×10^4 cells per well (100 μL) of a 96 well tray and incubated at 37° C. for 24 hrs. Mitomycin C was diluted in 10% FCS medium in doubling dilutions from between 2.8 to 0.02 ug/ml for 5637 cells and between 3.36 to 0.03 ug/ml for T24 cells. CVA21 was then diluted between MOI 25-0.196 in doubling dilutions using each dilution of Mitomycin C. The cells were then treated with each dilution of CVA21/Mitomycin C and incubated for 72 hrs. The medium was removed and 100 μl of diluted MTS reagent (Promega) was added. The plates were then incubated for 1-4 hrs and absorbance read at 492 nm.

Coxsackievirus A21 [CVA21]
interaction of CVA21 with radiation (5637 cells; 24 hours later CVA21): clear synergy
combination indices, minima (5637 cells; 24 hours later exposed to CVA21 (MOI 0.961-12.6), dose matrix analysis): approximately 0.4
synergy with sequential dosing ([1]; CVA21 administered 4 hours after MMC, compared with concomitant dosing): synergy is well maintained
combination index values ([1]; CVA21 with Gemcitabine, from the 50% to the 75% effect levels, preliminary data): 0.69-0.83
combination index values ([1]; CVA21 with Mitomycin C, from the 50% to the 90% effect levels): 0.40-0.55
susceptibility of cell line to CVA21 (KU19-19 cells): resistant
CI values (bladder cell line T24): < 1

Reference: patent publication US20190134120A1, “METHODS FOR THE TREATMENT OF BLADDER CANCER” (Viralytics Limited, priority 2013, published 2019)
